Assay results: patent US11311520B2, “Substituted dihydroimidazopyridinediones as MKNK1 and MKNK2 inhibitors” (Bayer Pharma Aktiengesellschaft, priority 2017, dated 2022)

Molecular target: human full-length MKNK1 (Homo sapiens (Human), UniProt Q9BUB5, T344D)
Test: MKNK1 kinase high ATP assay (TR-FRET)
Assay type: biochemical
Conditions: 2 mM ATP, 15 min preincubation with enzyme, GST-MKNK1 (T344D)
Protocol: MKNK1 Kinase High ATP Assay
MKNK1-inhibitory activity at high ATP of compounds of the present invention after their preincubation with MKNK1 was quantified employing the TR-FRET-based MKNK1 high ATP assay as described in the following paragraphs.
A recombinant fusion protein of Glutathione-S-Transferase (GST, N-terminally) and human full-length MKNK1 (amino acids 1-424 and T344D of accession number BAA 19885.1), expressed in insect cells using baculovirus expression system and purified via glutathione sepharose affinity chromatography, was purchased from Carna Biosciences (product no 02-145) and used as enzyme. As substrate for the kinase reaction the biotinylated peptide biotin-Ahx-IKKRKLTRRKSLKG (SEQ ID NO: 1) (C-terminus in amide form) was used, which can be purchased e.g. from the company Biosyntan (Berlin-Buch, Germany)
For the assay 50 nL of a 100 fold concentrated solution of the test compound in DMSO was pipetted into a black low volume 384 well microtiter plate (Greiner Bio-One, Frickenhausen, Germany), 2 μL of a solution of MKNK1 in aqueous assay buffer [50 mM HEPES pH 7.5, 5 mM MgCl2, 1.0 mM dithiothreitol, 0.005% (v/v) Nonidet-P40 (Sigma)] was added and the mixture was incubated for […] at 22° C. to allow pre-binding of the test compounds to the enzyme before the start of the kinase reaction. Then the kinase reaction was started by the addition of 3 μL of a solution of adenosine-tri-phosphate (ATP, 3.3 mM=>final conc. in the 5 μL assay volume is 2 mM) and substrate (0.1 μM=>final conc. in the 5 μL assay volume is 0.06 μM) in assay buffer and the resulting mixture was incubated for a reaction time of 30 min at 22° C. The concentration of MKNK1 was adjusted depending of the activity of the enzyme lot and was chosen appropriate to have the assay in the linear range, typical concentrations were in the range of 0.003 μg/mL. The reaction was stopped by the addition of 5 μL of a solution of TR-FRET detection reagents (5 nM streptavidine-XL665 [Cisbio Bioassays, Codolet, France] and 1 nM anti-ribosomal protein S6 (pSer236)-antibody from Invitrogen [#44921G] and 1 nM LANCE EU-W1024 labeled ProteinG [Perkin-Elmer, product no. AD0071]) in an aqueous EDTA-solution (100 mM EDTA, 0.1% (w/v) bovine serum albumin in 50 mM HEPES pH 7.5).
The resulting mixture was incubated for 1 h at 22° C. to allow the formation of complex between the phosphorylated biotinylated peptide and the detection reagents. Subsequently the amount of phosphorylated substrate was evaluated by measurement of the resonance energy transfer from the Eu-chelate to the streptavidine-XL. Therefore, the fluorescence emissions at 620 nm and 665 nm after excitation at 350 nm were measured in a TR-FRET reader, e.g. a Rubystar (BMG Labtechnologies, Offenburg, Germany) or a Viewlux (Perkin-Elmer). The ratio of the emissions at 665 nm and at […] was taken as the measure for the amount of phosphorylated substrate. The data were normalised (enzyme reaction without inhibitor=0% inhibition, all other assay components but no enzyme=100% inhibition).

human full-length MKNK1, sequence (Q9BUB5 other isoform, or with tags, fused parts or gaps T344D): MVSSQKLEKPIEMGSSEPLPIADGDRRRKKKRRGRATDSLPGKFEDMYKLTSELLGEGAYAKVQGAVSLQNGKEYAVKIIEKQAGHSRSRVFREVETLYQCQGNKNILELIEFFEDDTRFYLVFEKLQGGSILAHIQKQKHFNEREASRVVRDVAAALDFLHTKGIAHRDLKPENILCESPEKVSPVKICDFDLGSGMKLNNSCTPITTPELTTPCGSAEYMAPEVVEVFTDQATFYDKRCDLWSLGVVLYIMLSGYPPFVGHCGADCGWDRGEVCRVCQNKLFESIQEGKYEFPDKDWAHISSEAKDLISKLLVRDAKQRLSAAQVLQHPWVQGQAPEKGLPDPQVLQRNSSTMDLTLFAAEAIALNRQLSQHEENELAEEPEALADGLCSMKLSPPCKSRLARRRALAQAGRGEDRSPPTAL

For `Cc1cc(Nc2ncnc3c2ncn3CC(=O)O)c(=O)n2c1C(=O)NC21CCCCC1` [Example 48, {6-[(8′-Methyl-1′,5′-dioxo-1′,5′-dihydro-2′H-spiro[cyclohexane-1,3′-imidazo[1,5-a]pyridin]-6′-yl)amino]-9H-purin-9-yl}acetic acid], which IC50 is on record?
Its IC50 is 29.4 nM.

Which IC50 does the source give for `Cc1cc(Nc2ncnc3c2ncn3CC(=O)N(C)C)c(=O)n2c1C(=O)NC21CCCCC1` [Example 49, N,N-Dimethyl-2-{6-[(8′-methyl-1′,5′-dioxo-1′,5′-dihydro-2′H-spiro[cyclohexane-1,3′-imidazo[1,5-a]pyridin]-6′-yl)amino]-9H-purin-9-yl}acetamide] here?
Its IC50 is 490 nM.

With `Cc1cc(Nc2ncnc3c2ncn3CC(=O)N(C)CCN(C)C)c(=O)n2c1C(=O)NC21CCCCC1` [Example 50] as the compound, how does the IC50 read?
The IC50 was 950 nM.

Which IC50 does the source give for `Cc1cc(Nc2ncnc3scnc23)c(=O)n2c1C(=O)NC21CCCCC1` [Example 51, 8′-Methyl-6′-([1,3]thiazolo[5,4-d]pyrimidin-7-ylamino)-2′H-spiro[cyclohexane-1,3′-imidazo[1,5-a]pyridine]-1′,5′-dione] here?
Its IC50 is 2.9 nM.

How did the IC50 turn out when `Cc1cc(Nc2ncnc3occc23)c(=O)n2c1C(=O)NC21CCCCC1` [Example 52, 6′-(Furo[2,3-d]pyrimidin-4-ylamino)-8′-methyl-2′H-spiro[cyclohexane-1,3′-imidazo[1,5-a]pyridine]-1′,5′-dione] was run?
Its IC50 is 13 nM.

Which IC50 does the source give for `Cc1cc(Nc2ncnc(NC(=O)C3CC3)n2)c(=O)n2c1C(=O)NC21CCCC1` [Example 53, N-{4-[(8′-Methyl-1′,5′-dioxo-1′,5′-dihydro-2′H-spiro[cyclopentane-1,3′-imidazo[1,5-a]pyridin]-6′-yl)amino]-1,3,5-triazin-2-yl}cyclopropanecarboxamide] here?
The IC50 was 2.4 nM.

How did the IC50 turn out when `Cc1cc(Nc2ncnc(N)n2)c(=O)n2c1C(=O)NC21CCCC1` [Example 54, 6′-[(4-Amino-1,3,5-triazin-2-yl)amino]-8′-methyl-2′H-spiro[cyclopentane-1,3′-imidazo[1,5-a]pyridine]-1′,5′-dione] was run?
Its IC50 is 5.7 nM.

With `Cc1cc(Nc2ncnc3[nH]ccc23)c(=O)n2c1C(=O)NC21CCCC1` [Example 55, 8′-Methyl-6′-(7H-pyrrolo[2,3-d]pyrimidin-4-ylamino)-2′H-spiro[cyclopentane-1,3′-imidazo[1,5-a]pyridine]-1′,5′-dione] as the compound, how does the IC50 read?
Its IC50 is 0.3 nM.

How did the IC50 turn out when `Cc1cc(Nc2ncnc3sccc23)c(=O)n2c1C(=O)NC21CCCC1` [Example 56, 8′-Methyl-6′-(thieno[2,3-d]pyrimidin-4-ylamino)-2′H-spiro[cyclopentane-1,3′-imidazo[1,5-a]pyridine]-1′,5′-dione] was run?
Its IC50 is 0.1 nM.

With `Cc1cc(Nc2ccnc3[nH]cnc23)c(=O)n2c1C(=O)NC21CCCCC1` [Example 57, 6′-(3H-Imidazo[4,5-b]pyridin-7-ylamino)-8′-methyl-2′H-spiro[cyclohexane-1,3′-imidazo[1,5-a]pyridine]-1′,5′-dione] as the compound, how does the IC50 read?
The IC50 was 6.2 nM.

With `Cc1cc(Nc2ncnc3sc(C(=O)O)cc23)c(=O)n2c1C(=O)NC21CCCC1` [Example 58, 4-[(8′-Methyl-1′,5′-dioxo-1′,5′-dihydro-2′H-spiro[cyclopentane-1,3′-imidazo[1,5-a]pyridin]-6′-yl)amino]thieno[2,3-d]pyrimidine-6-carboxylic acid] as the compound, how does the IC50 read?
Its IC50 is 18.8 nM.

How did the IC50 turn out when `Cc1cc(Nc2ncnc3sc(C(=O)NCCN(C)C)cc23)c(=O)n2c1C(=O)NC21CCCC1` [Example 59, N-[2-(Dimethylamino)ethyl]-4-[(8′-methyl-1′,5′-dioxo-1′,5′-dihydro-2′H-spiro[cyclopentane-1,3′-imidazo[1,5-a]pyridin]-6′-yl)amino]thieno[2,3-d]pyrimidine-6-carboxamide] was run?
The IC50 was 2.7 nM.

`Cc1cc(Nc2ncnc3sc(C(=O)N(C)CCN(C)C)cc23)c(=O)n2c1C(=O)NC21CCCC1` [Example 60, N-[2-(Dimethylamino)ethyl]-N-methyl-4-[(8′-methyl-1′,5′-dioxo-1′,5′-dihydro-2′H-spiro[cyclopentane-1,3′-imidazo[1,5-a]pyridin]-6′-yl)amino]thieno[2,3-d]pyrimidine-6-carboxamide] was tested. Which IC50 did it give?
The IC50 was 6.3 nM.

With `Cc1cc(Nc2ncnc3sc(C(=O)N4CC(C#N)C4)cc23)c(=O)n2c1C(=O)NC21CCCC1` [Example 61, 1-({4-[(8′-Methyl-1′,5′-dioxo-1′,5′-dihydro-2′H-spiro[cyclopentane-1,3′-imidazo[1,5-a]pyridin]-6′-yl)amino]thieno[2,3-d]pyrimidin-6-yl}carbonyl)azetidine-3-carbonitrile] as the compound, how does the IC50 read?
The IC50 was 5.9 nM.

`Cc1cc(Nc2ncnc3sc(C(=O)N4CC(NC(=O)OC(C)(C)C)C4)cc23)c(=O)n2c1C(=O)NC21CCCC1` [Example 62, tert-Butyl [1-({4-[(8′-methyl-1′,5′-dioxo-1′,5′-dihydro-2′H-spiro[cyclopentane-1,3′-imidazo[1,5-a]pyridin]-6′-yl)amino]thieno[2,3-d]pyrimidin-6-yl}carbonyl)azetidin-3-yl]carbamate] was tested. Which IC50 did it give?
The IC50 was 4 nM.

For `Cc1cc(Nc2ncnc3sc(C(=O)N4CC[C@@H](N(C)C)C4)cc23)c(=O)n2c1C(=O)NC21CCCC1` [Example 63, 6′-[(6-{[(3R)-3-(Dimethylamino)pyrrolidin-1-yl]carbonyl}thieno[2,3-d]pyrimidin-4-yl)amino]-8′-methyl-2′H-spiro[cyclopentane-1,3′-imidazo[1,5-a]pyridine]-1′,5′-dione], which IC50 is on record?
The IC50 was 3.8 nM.

`Cc1cc(Nc2ncnc3sc(C(=O)N4CCC(N(C)C)CC4)cc23)c(=O)n2c1C(=O)NC21CCCC1` [Example 64, 6′-[(6-{[4-(Dimethylamino)piperidin-1-yl]carbonyl}thieno[2,3-d]pyrimidin-4-yl)amino]-8′-methyl-2′H-spiro[cyclopentane-1,3′-imidazo[1,5-a]pyridine]-1′,5′-dione] was tested. Which IC50 did it give?
Its IC50 is 5.5 nM.

How did the IC50 turn out when `Cc1cc(Nc2ncnc3sc(C(=O)N4C[C@H]5C[C@@H]4CO5)cc23)c(=O)n2c1C(=O)NC21CCCCC1` [Example 65, 8′-Methyl-6′-({6-[(1R,4R)-2-oxa-5-azabicyclo[2.2.1]hept-5-ylcarbonyl]thieno[2,3-d]pyrimidin-4-yl}amino)-2′H-spiro[cyclohexane-1,3′-imidazo[1,5-a]pyridine]-1′,5′-dione] was run?
Its IC50 is 5.9 nM.

Which IC50 does the source give for `Cc1cc(Nc2ncnc3sc(C(=O)N4C[C@@H]5C[C@H]4CO5)cc23)c(=O)n2c1C(=O)NC21CCCCC1` [Example 66, 8′-Methyl-6′-({6-[(1S,4S)-2-oxa-5-azabicyclo[2.2.1]hept-5-ylcarbonyl]thieno[2,3-d]pyrimidin-4-yl}amino)-2′H-spiro[cyclohexane-1,3′-imidazo[1,5-a]pyridine]-1′,5′-dione] here?
Its IC50 is 9 nM.

`Cc1cc(Nc2ncnc3[nH]cnc23)c(=O)n2c1C(=O)NC21CCCC1` [Example 67, 8′-methyl-6′-(9H-purin-6-ylamino)-2′H-spiro[cyclopentane-1,3′-imidazo[1,5-a]pyridine]-1′,5′-dione] was tested. Which IC50 did it give?
Its IC50 is 0.7 nM.

With `Cc1cc(Nc2ncnc3[nH]ncc23)c(=O)n2c1C(=O)NC21CCCC1` [Example 68, 8′-methyl-6′-(1H-pyrazolo[3,4-d]pyrimidin-4-ylamino)-2′H-spiro[cyclopentane-1,3′-imidazo[1,5-a]pyridine]-1′,5′-dione] as the compound, how does the IC50 read?
The IC50 was 1.8 nM.

Which IC50 does the source give for `Cc1cc(Nc2ncnc3c2CN(S(C)(=O)=O)C3)c(=O)n2c1C(=O)NC21CCCCC1` [Example 69, 8′-methyl-6′-{[6-(methylsulfonyl)-6,7-dihydro-5H-pyrrolo[3,4-d]pyrimidin-4-yl]amino}-2′H-spiro[cyclohexane-1,3′-imidazo[1,5-a]pyridine]-1′,5′-dione] here?
Its IC50 is 144 nM.

With `Cc1cc(Nc2ncnc3c2CN(S(=O)(=O)c2ccccc2)C3)c(=O)n2c1C(=O)NC21CCCCC1` [Example 70, 8′-methyl-6′-{[6-(phenylsulfonyl)-6,7-dihydro-5H-pyrrolo[3,4-d]pyrimidin-4-yl]amino}-2′H-spiro[cyclohexane-1,3′-imidazo[1,5-a]pyridine]-1′,5′-dione] as the compound, how does the IC50 read?
The IC50 was 21.7 nM.

For `Cc1cc(Nc2ncnc3c2CN(S(=O)(=O)C(F)F)C3)c(=O)n2c1C(=O)NC21CCCCC1` [Example 71, 6′-({6-[(difluoromethyl)sulfonyl]-6,7-dihydro-5H-pyrrolo[3,4-d]pyrimidin-4-yl}amino)-8′-methyl-2′H-spiro[cyclohexane-1,3′-imidazo[1,5-a]pyridine]-1′,5′-dione], which IC50 is on record?
Its IC50 is 59.2 nM.
